The structures appear in SMILES notation.

One data set concerns the target T1, MGL (Rattus norvegicus, UniProt Q8R431).
T1 sequence (Q8R431 1-303): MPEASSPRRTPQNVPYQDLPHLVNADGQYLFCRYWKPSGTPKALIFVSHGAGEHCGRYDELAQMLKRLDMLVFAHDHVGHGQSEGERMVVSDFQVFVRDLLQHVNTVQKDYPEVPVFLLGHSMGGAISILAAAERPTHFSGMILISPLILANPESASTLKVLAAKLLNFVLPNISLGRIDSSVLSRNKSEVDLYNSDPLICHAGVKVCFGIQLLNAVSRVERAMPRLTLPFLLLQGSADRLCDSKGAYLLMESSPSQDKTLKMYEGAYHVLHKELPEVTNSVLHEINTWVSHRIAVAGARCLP
Particulars: 100 µM.

Protocol for MGL: The percentage of inhibition describes the percentage by which the inhibitor reduces the velocity/rate of 2-AG hydrolysis by MGL. […] The Ki value is the affinity constant and describes the affinity of the inhibitor for the MGL.
These rat brains are homogenized in 5 volumes of ice-cold buffer (0.32 M sucrose, 10 mM Tris base, 5 mM EDTA, pH 7.4) then centrifuged at 17400 g for 30 min. The supernatant was further centrifuged at 124,000 g for 90 min. The supernatant from the last certifugation step (cytosol fraction) is resuspended in TME buffer (25 mM Tris base, 5 mM MgCl2, 1 mM EDTA, pH 7.4) for the MGL preparation. Aliquots (1 ml) from the preparation are flash frozen in liquid nitrogen and stored at −80° C. until used. Protein concentration of the enzyme suspension is determined using the BioRad protein assay kit. […]
Again the reaction mixture is treated in the same manner as described above and the concentrations of 2-AG and AA are calculated using external standards. Percent inhibition is calculated using the following equation: […]
where (AA20−AA0)c is the amount of arachidonic acid formed over 20 min from 2-AG with the inhibitor present and (AA20−AA0)s is the amount of arachidonic acid formed over 20 min from 2-AG when the inhibitor is not present. […] The reaction mixtures are treated as described above and the amount of AA formed was calculated. […]

`O=S(=O)(Cl)CCCCCCCc1ccc(OCc2ccccc2)cc1` [Compound 12.1, 7-(4-Benzyloxy-phenyl)-heptanesulfonyl chloride]: the melting point (commonly the temperature of the solid-liquid transition) is 33 to 35 °C.
Regarding `O=S(=O)(Cl)CCCCCc1ccc(OCc2ccccc2)cc1` [Compound 12.4, 5-(4-Benzyloxy-phenyl)-pentanesulfonyl chloride], the melting point lay within 58 to 60 °C.
Take `O=S(=O)(F)CCCCCc1ccc(O)cc1` [Compound 14.4, 5-(4-Hydroxy-phenyl)-pentanesulfonyl fluoride]: the melting point lay in the range of 32 to 35 °C.
For `CCOC(=O)NCc1ccc(Br)cc1` [Compound 57.1], the inhibition (commonly the relative decrease from the control value, in per cent) against MGL is 44%.
